# Where “and” joins values, the source holds several entries; their conditions need not be identical. Equal values may be shown once.
# Key:
# Experiment in all cases: ≥ marks a high value that may be exact or a test limit, other limits are often not marked, values filed in µg/mL are converted to µM
# [1] = tested on: Staphylococcus aureus ATCC BAA-1556
# Escherichia coli BW25113 = tested on: Escherichia coli BW25113
# [2] = tested on: Candida albicans NCYC 1467
# [3] = tested on: Enterococcus faecalis NCTC 12697
# [4] = tested on: Escherichia coli NCTC 10418
# [5] = tested on: Klebsiella pneumoniae ATCC 43816
# [6] = tested on: Pseudomonas aeruginosa ATCC 27853
# [7] = tested on: Staphylococcus aureus NCTC 10788
# [8] = tested on: Staphylococcus aureus NCTC 12493
# [9] = tested on: Staphylococcus aureus SAP 0017
# Bacillus subtilis = tested on: Bacillus subtilis
# Escherichia coli = tested on: Escherichia coli
# Proteus vulgaris = tested on: Proteus vulgaris
# Pseudomonas aeruginosa = tested on: Pseudomonas aeruginosa
# Salmonella typhimurium = tested on: Salmonella typhimurium
# [10] = tested on: Staphylococcus epidermidis
# Streptococcus pyogenes = tested on: Streptococcus pyogenes
# [11] = tested on: Bacillus cereus ATCC 11778
# [12] = tested on: Escherichia coli ATCC 25922
# [13] = tested on: Klebsiella aerogenes ATCC 13048
# [14] = tested on: Salmonella enterica subsp. enterica serovar Typhimurium ATCC 14028
# [15] = tested on: Staphylococcus aureus ATCC 29213
# Acinetobacter baumannii = tested on: Acinetobacter baumannii
# Enterococcus faecium = tested on: Enterococcus faecium
# Klebsiella pneumoniae = tested on: Klebsiella pneumoniae
# [16] = tested on: Staphylococcus aureus ATCC 43300
# Streptococcus pneumoniae = tested on: Streptococcus pneumoniae
structure (smiles),measurement,setting,value
CC(C)C[C@H](NC(=O)[C@H](CC(C)C)NC(=O)[C@H](CC(C)C)NC(=O)[C@H](CCCCN)NC(=O)[C@H](CC(C)C)NC(=O)[C@@H](N)CC(C)C)C(=O)N[C@@H](CCCCN)C(N)=O [LLKLLLK],MIC,[1],≥ 100 µM
CC[C@H](C)[C@H](NC(=O)[C@@H]1CCCN1C(=O)[C@H](CCCN=C(N)N)NC(=O)[C@H](CCCN=C(N)N)NC(=O)[C@H](Cc1ccccc1)NC(=O)[C@@H](N)CCCN=C(N)N)C(=O)N[C@@H](CCCN=C(N)N)C(=O)N[C@@H](CCCN=C(N)N)C(=O)N1CCC[C@H]1C(=O)N1CCC[C@H]1C(=O)N[C@H](C(=O)N[C@@H](CCCN=C(N)N)C(=O)N1CCC[C@H]1C(=O)N1CCC[C@H]1C(=O)N[C@@H](Cc1c[nH]c2ccccc12)C(=O)N[C@@H](Cc1ccc(O)cc1)C(=O)N1CCC[C@H]1C(=O)O)[C@@H](C)CC [RFRRPIRRPPIRPPWYP],MIC,Escherichia coli BW25113,12 µM
CC[C@H](C)[C@@H]1NC(=O)[C@H](C)NC(=O)[C@@H](NC(=O)[C@H](Cc2ccccc2)NC(=O)[C@@H](NC(=O)[C@H](CCCCN)NC(=O)[C@H](Cc2c[nH]c3ccccc23)NC(=O)[C@@H]2CCCN2C(=O)[C@H](CC(C)C)NC(=O)[C@H](Cc2ccccc2)NC(=O)[C@H](CCCCN)NC(=O)[C@@H](N)CCCCN)[C@@H](C)CC)CSSC[C@@H](C(=O)O)NC(=O)[C@H](CCCCN)NC(=O)[C@H](CCCCN)NC(=O)[C@H]([C@@H](C)O)NC1=O [KKFLPWKIFCAITKKC],MIC,[2],8 µM
same,MIC,[3],≥ 256 µM
same,MIC,[4],16 µM
same,MIC,[5],≥ 32 µM
same,MIC,[6],64 µM
same,MIC,[7],8 µM
same,MIC,[8],8 µM
CC[C@H](C)[C@H](NC(=O)[C@@H]1CCCN1C(=O)[C@H](CCCN=C(N)N)NC(=O)[C@H](CCCN=C(N)N)NC(=O)[C@H](Cc1ccccc1)NC(=O)[C@@H](N)CCCN=C(N)N)C(=O)N[C@@H](CCCN=C(N)N)C(=O)N[C@@H](CCCN=C(N)N)C(=O)N[C@@H](CCCN=C(N)N)C(=O)N1CCC[C@H]1C(=O)N[C@H](C(=O)N[C@@H](CCCN=C(N)N)C(=O)N1CCC[C@H]1C(=O)N1CCC[C@H]1C(=O)N[C@@H](Cc1c[nH]c2ccccc12)C(=O)N[C@@H](Cc1ccc(O)cc1)C(=O)N[C@@H](CCCN=C(N)N)C(=O)O)[C@@H](C)CC [RFRRPIRRRPIRPPWYR],MIC,Escherichia coli BW25113,8 µM
CC[C@H](C)[C@H](N)C(=O)N[C@@H](CC(C)C)C(=O)N[C@H](C(=O)N[C@@H](CCCN=C(N)N)C(=O)N[C@@H](Cc1c[nH]c2ccccc12)C(=O)N[C@H](C(=O)N[C@@H](CCCN=C(N)N)C(=O)N[C@@H](Cc1c[nH]c2ccccc12)C(=O)N[C@@H](CCCN=C(N)N)C(=O)N[C@H](C(=O)N[C@@H](CCC(N)=O)C(=O)N[C@@H](Cc1c[nH]c2ccccc12)C(N)=O)[C@@H](C)CC)[C@@H](C)CC)C(C)C [ILVRWIRWRIQW],MIC,[9],2 µM and 4 µM
CC[C@H](C)[C@H](NC(=O)[C@@H]1CCCN1C(=O)[C@H](Cc1c[nH]c2ccccc12)NC(=O)[C@H](CCCN=C(N)N)NC(=O)[C@H](Cc1c[nH]c2ccccc12)NC(=O)[C@@H](N)CCCN=C(N)N)C(=O)N[C@@H](CCCN=C(N)N)C(=O)N[C@@H](CCCN=C(N)N)C(=O)N1CCC[C@H]1C(=O)N1CCC[C@H]1C(=O)N[C@H](C(=O)N[C@@H](CCCN=C(N)N)C(=O)N1CCC[C@H]1C(=O)N1CCC[C@H]1C(=O)N[C@@H](Cc1c[nH]c2ccccc12)C(=O)N[C@@H](Cc1ccc(O)cc1)C(=O)N1CCC[C@H]1C(=O)O)[C@@H](C)CC [RWRWPIRRPPIRPPWYP],MIC,Escherichia coli BW25113,8 µM
CC(C)C[C@H](NC(=O)[C@H](CCCN=C(N)N)NC(=O)[C@@H]1CCCN1C(=O)[C@H](Cc1cnc[nH]1)NC(=O)[C@@H]1CCCN1C(=O)[C@@H]1CCCN1C(=O)[C@H](CCCN=C(N)N)NC(=O)[C@@H]1CCCN1C(=O)[C@@H]1CCCN1C(=O)[C@H](Cc1cnc[nH]1)NC(=O)[C@@H]1CCCN1C(=O)[C@@H]1CCCN1C(=O)[C@H](CCCN=C(N)N)NC(=O)[C@@H]1CCCN1)C(=O)O [PRPPHPPRPPHPRL],MIC,Bacillus subtilis,≥ 64 µM
same,MIC,Escherichia coli,8 µM
same,MIC,Proteus vulgaris,≥ 64 µM
same,MIC,Pseudomonas aeruginosa,64 µM
same,MIC,Salmonella typhimurium,0.5 µM
same,MIC,[10],≥ 64 µM
same,MIC,Streptococcus pyogenes,≥ 64 µM
CC[C@H](C)[C@H](N)C(=O)N[C@@H](CC(C)C)C(=O)NCC(=O)N[C@@H](CCCCN)C(=O)N[C@@H](C)C(=O)N[C@@H](Cc1c[nH]c2ccccc12)C(=O)N[C@@H](CCC(=O)O)C(=O)NCC(=O)N[C@@H](C)C(=O)N[C@@H](CCCCN)C(=O)N[C@@H](CO)C(=O)N[C@@H](CC(C)C)C(=O)N[C@@H](Cc1ccccc1)C(N)=O [ILGKAWEGAKSLF],MIC,[11],≥ 70.4 µM
same,MIC,[12],> 70.4 µM
same,MIC,[13],≥ 70.4 µM
same,MIC,[14],> 70.4 µM
same,MIC,[15],> 70.4 µM
CC[C@H](C)[C@H](NC(=O)[C@H](C)NC(=O)[C@H](CO)NC(=O)[C@@H](NC(=O)[C@@H](NC(=O)[C@H](CCCCN)NC(=O)[C@@H]1CCCN1C(=O)[C@@H](NC(=O)[C@H](CC(C)C)NC(=O)[C@H](CO)NC(=O)[C@H](CC(C)C)NC(=O)[C@@H](N)Cc1ccccc1)[C@@H](C)CC)[C@@H](C)CC)[C@@H](C)CC)C(=O)N[C@@H](CO)C(=O)N[C@@H](C)C(=O)N[C@@H](CC(C)C)C(=O)N[C@H](C(=O)N[C@@H](CCCCN)C(=O)N[C@@H](Cc1cnc[nH]1)C(=O)N[C@@H](Cc1ccccc1)C(N)=O)[C@@H](C)CC [FLSLIPKIISAISALIKHF],MIC,[2],≥ 32 µM
same,MIC,[3],16 µM
same,MIC,[4],≥ 512 µM
same,MIC,[5],≥ 512 µM
same,MIC,[6],> 512 µM
same,MIC,[7],2 µM
same,MIC,[8],≥ 64 µM
CC(C)C[C@H](NC(=O)[C@H](CC(C)C)NC(=O)[C@H](CCCCN)NC(=O)[C@H](CC(C)C)NC(=O)[C@H](CC(C)C)NC(=O)[C@H](CC(C)C)NC(=O)[C@@H](N)CCCCN)C(N)=O [KLLLKLL],MIC,[1],≥ 100 µM
CC[C@H](C)[C@H](NC(=O)[C@H](Cc1c[nH]c2ccccc12)NC(=O)[C@H](CCCN=C(N)N)NC(=O)[C@@H](N)CCCN=C(N)N)C(=O)N[C@@H](CCCN=C(N)N)C(=O)N[C@@H](Cc1c[nH]c2ccccc12)C(=O)N[C@@H](CC(C)C)C(N)=O [RRWIRWL],MIC,[1],≥ 100 µM
CC[C@H](C)[C@H](NC(=O)CNC(=O)[C@H](Cc1cnc[nH]1)NC(=O)CNC(=O)CN)C(=O)N[C@@H](CCCN=C(N)N)C(=O)N[C@@H](CCCN=C(N)N)C(=O)N[C@H](C(=O)N[C@H](C(=O)N[C@@H](CCCN=C(N)N)C(=O)N[C@@H](CCCCN)C(=O)N[C@H](C(=O)N[C@H](C(=O)N[C@@H](Cc1cnc[nH]1)C(=O)N[C@H](C(=O)N[C@H](C(=O)N[C@@H](CCCCN)C(=O)N[C@@H](CCCCN)C(=O)NCC(=O)NCC(=O)N[C@@H](CS)C(N)=O)[C@@H](C)CC)[C@@H](C)CC)[C@@H](C)CC)[C@@H](C)CC)[C@@H](C)CC)[C@@H](C)CC [GGHGIRRIIRKIIHIIKKGGC],MIC,Acinetobacter baumannii,9.3 µM
same,MIC,Enterococcus faecium,8 µM
same,MIC,[12],3 µM
same,MIC,Klebsiella pneumoniae,> 16 µM
same,MIC,Pseudomonas aeruginosa,12 µM
same,MIC,[16],4 µM
same,MIC,Streptococcus pneumoniae,8 µM
CC(C)C[C@H](NC(=O)[C@H](CC(C)C)NC(=O)[C@H](CC(C)C)NC(=O)[C@H](CCCCN)NC(=O)[C@H](CC(C)C)NC(=O)[C@H](CCCCN)NC(=O)[C@H](CC(C)C)NC(=O)[C@H](CC(C)C)NC(=O)[C@@H](N)CC(C)C)C(N)=O [LLLKLKLLL],MIC,[1],≥ 100 µM
